The conditions of the series: for nicotine content in hair: smoker, three 6 cm hairs (about 0.9 mg). The protocol: Three 60 mm hairs (about 0.9 mg) were put in a stainless injection needle (inner diameter of 0.5 mm, outer diameter of 0.7 mm, the tip conical part length of 2 mm, the container part length of 80 mm, and one aperture of 0.4 mm in diameter in the lateral side of the end of the container). A syringe was fixed to the needle and methanol, dichloromethane and methanol each one ml were run in this order through the needle to wash the hairs.
Then, the needle was inserted into an injector (at 300° C.) of a gas chromatograph (Agilent, HP-6890) and held for 15 seconds. Then, dichloromethane (25 μL) was injected for desorption and a carrier gas was run. The chromatography was conducted under the following conditions. • Column diameter: 0.25 mm • Column length: 25 m • Column stationary phase: dimethylpolysiloxane (HR-1) • Column temperature: 50° C. to 300° C. (temperature rising: 5° C./min) • Carrier gas: helium • Carrier gas flow: 0.9 ml/min • Split ratio: 25:1 • Detector: MS (Agilent, HP-5972)
Three 6 cm hairs (about 0.9 mg) were used for the analysis.

Structures are written as SMILES. Where two headings read alike, the source gives them in different places.

`CN1CCCC1c1cccnc1` (stereo not shown) [nicotine]: the “nicotine detection in hair” value (hair of smoker, three 60 mm hairs (about 0.9 mg), GC-MS) is recorded as “clearly detected”. Further, the “nicotine content in hair” value is, setting by setting: (10 cigarettes per day, tobacco brand B (nominal nicotine 0.7 mg)) 11.5 ng/mg; (15 cigarettes per day, tobacco brand E (nominal nicotine 0.8 mg)) 8.2 ng/mg; (15 cigarettes per day, tobacco brand F (nominal nicotine 0.1 mg)) 13.0 ng/mg; (20 cigarettes per day, tobacco brand A (nominal nicotine 1.2 mg)) 12.1 ng/mg; (20 cigarettes per day, tobacco brand D (nominal nicotine 0.1 mg)) 30.5 ng/mg; (30 cigarettes per day, tobacco brand C (nominal nicotine 0.4 mg)) 55.3 ng/mg.

The values above are taken from patent publication US9097693B2, “Simple analysis method of drugs” (priority 2005, dated 2015).
